Key:
[1] = tested on: donor one normal human dermal fibroblasts induced with TGF-β1; assay: Collagen production, AlphaLISA hPIP assay; format: cell-based; details: for human procollagen Type I C-peptide (HPIP) level: 50 ng/mL TGF-β1, 48 hours; for Effect on elevated collagen levels (in words): statistics at 100 μM vs vehicle control and between groups (FIG. 3)
Protocol: The effect of sitaxentan on collagen production was measured in an AlphaLISA assay using donor one normal human dermal fibroblasts induced with TGF-β1 into a profibrotic phenotype. For this assay cells were grown for 48 hours in the presence of vehicle control, sitaxentan, and bosentan. See, http://www.perkinelmer.com/product/alphalisa-hpip-collagen-[…]. An AlphaLISA assay was used, which is a variation of FRET (Fluorescence resonance energy transfer) technology that allows for the detection of molecules of interest in a no-wash, highly sensitive, quantitative assay. In an AlphaLISA assay, a biotinylated anti-analyte antibody binds to Streptavidin-coated donor beads while another anti-analyte antibody is conjugated to AlphaLISA Acceptor beads. In the presence of the analyte, the beads come into close proximity. The excitation of the donor beads cause the release of singlet oxygen molecules that trigger a cascade of energy transfer in the acceptor beads, resulting in a sharp peak of light emission at 615 nm. donor one normal human dermal fibroblast cells (LLCT FC0024 lot 03869_ fibroblast) were seeded to confluence in 96 well plates in 10% fetal bovine serum (FBS) Dulbecco's modified eagle medium (DMEM). The cells were washed to remove the FBS, and serum free media was added overnight (O/N). The cells were then stimulated with 50 ng/mL TGF-β1 and treated. The supernatant media above the cells in the wells was collected and diluted 1:20 in serum-free DMEM media. 5 μL of each hPIP analyte standard or 5 μL of sample was added. 10 μL of 5× […] Acceptor beads was added (10 μg/mL final). The plate was incubated 30 minutes at 23° C. 10 μL of 5× Biotinylated Anti-hPIP Antibody was added (1 nM). The plate was incubated 60 minutes at 23° C. 25 μL of 2× Streptavidin-Donor beads were added (40 μg/mL final). The plate was incubated 30 minutes at 23° C. in the dark. The plate was read using a Perkin Elmer EnVision-Alpha Reader (615 nm). Data were analyzed using GraphPad Prism 7. Three to four replicates were run for each sample.

[2] = tested on: donor one normal human dermal fibroblasts induced with TGF-β1; assay: Scratch (wound closure) assay, donor one NHDFs induced with TGF-β1; format: cell-based; details: for Scratch assay distance change: 50 ng/mL TGF-β1, 24 hours; for Effect on migration of fibroblasts (in words): donor one NHDFs, statistics at 100 μM vs vehicle control (FIG. 1)
Protocol: The effect of sitaxentan in a wound closure assay was measured using donor one normal human dermal fibroblasts induced with TGF-β1 into a profibrotic phenotype. […] For this assay the cells were grown to confluence, a scratch/ablation, i.e. “wound”, was created, and migration across the cleared zone was tracked. See, http://journals.plos.org/plosone/article?id=10.1371/journal.pone.0007438 and Wu, M. et al. Rosiglitazone abrogates bleomycin-induced scleroderma and blocks profibrotic responses through peroxisome proliferator-activated receptor-gamma. Am J Pathol174, 519-533, doi:10.2353/ajpath.2009.080574 (2009) donor one normal human dermal fibroblast cells (LLCT FC0024 lot 03869_ fibroblast) were seeded to confluence in 96 well plates in 10% fetal bovine serum (FBS) Dulbecco's modified eagle medium (DMEM). The cells were washed to remove the FBS, and serum free media was added for 16 hr overnight (O/N). Scratch assays were performed across each confluent monolayer. […] The cells were treated with increasing concentrations (1 μM, 3 μM, 10 μM, 30 μM, and 100 μM) of vehicle control, sitaxentan, and bosentan (as a comparator compound), in the presence of 50 ng/mL TGF-β1 to induce fibrogenesis. Six replicate samples were run for each concentration. Time zero images were taken and initial distance of the scratch/ablation recorded. The samples were incubated for 24 hours at 37° C., after which the media was removed and […] calcein acetoxymethyl (calcein AM) was added. The samples were incubated for 30 minutes. Images were taken and the distance of the scratch/ablation recorded. Decreases in distance indicated “wound” closure. Distances were calculated and analyzed using GraphPad Prism 7.

[3] = tested on: donor one normal human dermal fibroblasts induced with TGF-β1; assay: Cell viability assay (GF-AFC fluorescence); format: cell-based; details: 50 ng/mL TGF-β1, 48 hours
Protocol: (§1) The effect of sitaxentan on cell viability, cell cytotoxicity, and apoptosis was measured in an assay using donor one normal human dermal fibroblasts induced with TGF-β1 into a profibrotic phenotype. For these assays cells were grown for 48 hours in the presence of vehicle control, sitaxentan, and bosentan. The appropriate assay reagents and measuring techniques were used as indicated herein. donor one normal human dermal fibroblast cells (LLCT FC0024 lot 03869_ fibroblast) were seeded to confluence in 96 well plates in 10% fetal bovine serum (FBS) Dulbecco's modified eagle medium (DMEM). The cells were washed to remove the FBS, and serum free media is added overnight (O/N). The cells were then stimulated with 50 ng/mL TGF-β1 and treated for 48 hours. The following reagents were used for the different assays: For the cell viability/cytotoxicity assay: A master mix of the viability/cytotoxicity reagent was made by combining 10 uL of each substrate (GF-AFC and bis-AAF-R110) to 2 mLs of Assay Buffer (Promega, Cat #G6320). 20 μl of this viability/cytotoxicity reagent was then added to each well and briefly mixed. […] Data were analyzed using GraphPad Prism 7. Six to nine replicates were run for each sample.

[4] = tested on: donor one normal human dermal fibroblasts induced with TGF-β1; assay: Apoptosis assay (Caspase-Glo 3/7 luminescence); format: cell-based; details: for Apoptosis, relative light units: 50 ng/mL TGF-β1, 48 hours; for Effect on apoptosis (in words): statistics at 100 μM vs vehicle control and between groups (FIG. 6)
Protocol: The effect of sitaxentan on cell viability, cell cytotoxicity, and apoptosis was measured in an assay using donor one normal human dermal fibroblasts induced with TGF-β1 into a profibrotic phenotype. For these assays cells were grown for 48 hours in the presence of vehicle control, sitaxentan, and bosentan. The appropriate assay reagents and measuring techniques were used as indicated herein. donor one normal human dermal fibroblast cells (LLCT FC0024 lot 03869_ fibroblast) were seeded to confluence in 96 well plates in 10% fetal bovine serum (FBS) Dulbecco's modified eagle medium (DMEM). The cells were washed to remove the FBS, and serum free media is added overnight (O/N). The cells were then stimulated with 50 ng/mL TGF-β1 and treated for 48 hours. For the apoptosis assay: 100 μl of Caspase-Glo® 3/7 Reagent (Promega, Cat #G6320), for the apoptosis assay, was subsequently added after the viability/cytotoxicity fluorescent reads and briefly mixed. The plate was incubated for an additional 30 minutes at room temperature prior to the measurement of luminescence to detect apoptosis. Data were analyzed using GraphPad Prism 7. Six to nine replicates were run for each sample.

[5] = oral bosentan; cited from earlier work
[6] = tested on: donor one normal human dermal fibroblasts induced with TGF-β1; assay: Cell cytotoxicity assay (bis-AAF-R110 fluorescence); format: cell-based; details: for Cell cytotoxicity, relative fluorescence units: 50 ng/mL TGF-β1, 48 hours; for Cytotoxicity compared to the vehicle control (in words): statistics at 100 μM (FIG. 5); for Cytotoxicity, bosentan compared with sitaxentan (in words): statistics at 100 μM between groups (FIG. 5)
Protocol: as §1

[7] = in vivo; cited from earlier work

SMILES | human procollagen Type I C-peptide (HPIP) level ([1]; 1 μM) | human procollagen Type I C-peptide (HPIP) level ([1]; 3 μM) | human procollagen Type I C-peptide (HPIP) level ([1]; 10 μM) | human procollagen Type I C-peptide (HPIP) level ([1]; 30 μM) | human procollagen Type I C-peptide (HPIP) level ([1]; 100 μM) | Effect on elevated collagen levels (in words) [1] | Scratch assay distance change ([2]; 1 μM) | Scratch assay distance change ([2]; 3 μM) | Scratch assay distance change ([2]; 10 μM) | Scratch assay distance change ([2]; 30 μM) | Scratch assay distance change ([2]; 100 μM) | Effect on migration of fibroblasts (in words) [2] | Cell viability, relative fluorescence units ([3]; 1 μM) | Cell viability, relative fluorescence units ([3]; 3 μM) | Cell viability, relative fluorescence units ([3]; 10 μM) | Cell viability, relative fluorescence units ([3]; 30 μM) | Cell viability, relative fluorescence units ([3]; 100 μM) | Apoptosis, relative light units ([4]; 1 μM) | Apoptosis, relative light units ([4]; 3 μM) | Apoptosis, relative light units ([4]; 10 μM) | further results
COc1ccccc1Oc1c(NS(=O)(=O)c2ccc(C(C)(C)C)cc2)nc(-c2ncccn2)nc1OCCO [BOS] | 8.2 ng/mL | 8.6 ng/mL | 7.9 ng/mL | 7.1 ng/mL | 6.8 ng/mL | significantly decreased elevated collagen levels | 478 µm | 356 µm | 359 µm | 535 µm | 414 µm | no significant effect | 5406.8 RFUs | 5548.5 RFUs | 5521.2 RFUs | 5537.0 RFUs | 5584.3 RFUs | 39366.8 RLUs | 38639.8 RLUs | 38586.7 RLUs | Apoptosis, relative light units ([4]; 30 μM): 42825.2 RLUs; Apoptosis, relative light units ([4]; 100 μM): 43330.7 RLUs; Effect on apoptosis (in words) [4]: elevated; Cessation of treatment due to liver enzyme abnormalities, share of patients [5]: about 5%; Liver enzyme abnormalities, share of patients affected [5]: about 10%; Cell cytotoxicity, relative fluorescence units ([6]; 1 μM): 4256.9 RFUs; Cell cytotoxicity, relative fluorescence units ([6]; 3 μM): 3954.2 RFUs; Cell cytotoxicity, relative fluorescence units ([6]; 10 μM): 3764.0 RFUs; Cell cytotoxicity, relative fluorescence units ([6]; 30 μM): 4607.5 RFUs; Cell cytotoxicity, relative fluorescence units ([6]; 100 μM): 3929.0 RFUs; Cytotoxicity compared to the vehicle control (in words) [6]: neither bosentan nor sitaxentan was significantly more cytotoxic than the vehicle control; Cytotoxicity, bosentan compared with sitaxentan (in words) [6]: significantly more cytotoxic than sitaxentan
Cc1cc2c(cc1CC(=O)c1sccc1S(=O)(=O)Nc1onc(C)c1Cl)OCO2 [SIT, N-(4-Chloro-3-methyl-5-isoxazolyl)-2-[(2-methyl-4,5-methylenedioxyphenyl)-acetyl]thiophene-3-sulfonamide] | 7.0 ng/mL | 7.1 ng/mL | 6.4 ng/mL | 5.8 ng/mL | 2.2 ng/mL | significantly more efficacious than bosentan and returning collagen levels to untreated / uninduced levels | 506 µm | 557 µm | 496 µm | 494 µm | 269 µm | significantly reduced the migration | 5678.3 RFUs | 5639.0 RFUs | 5600.5 RFUs | 5250.8 RFUs | 5171.0 RFUs | 37593.4 RLUs | 39162.8 RLUs | 39512.0 RLUs | Apoptosis, relative light units ([4]; 30 μM): 46053.5 RLUs; Apoptosis, relative light units ([4]; 100 μM): 51050.2 RLUs; Effect on apoptosis (in words) [4]: significantly more potent effect than bosentan; Cell cytotoxicity, relative fluorescence units ([6]; 1 μM): 4643.9 RFUs; Cell cytotoxicity, relative fluorescence units ([6]; 3 μM): 5058.3 RFUs; Cell cytotoxicity, relative fluorescence units ([6]; 10 μM): 4741.7 RFUs; Cell cytotoxicity, relative fluorescence units ([6]; 30 μM): 3837.5 RFUs; Cell cytotoxicity, relative fluorescence units ([6]; 100 μM): 2911.3 RFUs; Cytotoxicity compared to the vehicle control (in words) [6]: neither bosentan nor sitaxentan was significantly more cytotoxic than the vehicle control; Cytotoxicity, bosentan compared with sitaxentan (in words) [6]: significantly less cytotoxic; Metabolism [7]: hepatic (CYP2C9- and CYP3A4-mediated); Protein binding [7]: > 99%
